Results taken from patent US20230058189A1, “QUINOLIN-4-ONE AND 4(1H)-CINNOLINONE COMPOUNDS AND METHODS OF USING SAME” (Frequency Therapeutics, Inc., priority 2019, published 2023).

These molecules were tested against T1, LSD2 (Homo sapiens, UniProt Q8NB78) (assay: LSD2 A-screen (AlphaScreen) demethylase enzymatic assay). Settings: 50 μM compound; approximate values; read-out: Potency LSD-2 % Inhibition at 50 μM.
T1 sequence (Q8NB78 1-822): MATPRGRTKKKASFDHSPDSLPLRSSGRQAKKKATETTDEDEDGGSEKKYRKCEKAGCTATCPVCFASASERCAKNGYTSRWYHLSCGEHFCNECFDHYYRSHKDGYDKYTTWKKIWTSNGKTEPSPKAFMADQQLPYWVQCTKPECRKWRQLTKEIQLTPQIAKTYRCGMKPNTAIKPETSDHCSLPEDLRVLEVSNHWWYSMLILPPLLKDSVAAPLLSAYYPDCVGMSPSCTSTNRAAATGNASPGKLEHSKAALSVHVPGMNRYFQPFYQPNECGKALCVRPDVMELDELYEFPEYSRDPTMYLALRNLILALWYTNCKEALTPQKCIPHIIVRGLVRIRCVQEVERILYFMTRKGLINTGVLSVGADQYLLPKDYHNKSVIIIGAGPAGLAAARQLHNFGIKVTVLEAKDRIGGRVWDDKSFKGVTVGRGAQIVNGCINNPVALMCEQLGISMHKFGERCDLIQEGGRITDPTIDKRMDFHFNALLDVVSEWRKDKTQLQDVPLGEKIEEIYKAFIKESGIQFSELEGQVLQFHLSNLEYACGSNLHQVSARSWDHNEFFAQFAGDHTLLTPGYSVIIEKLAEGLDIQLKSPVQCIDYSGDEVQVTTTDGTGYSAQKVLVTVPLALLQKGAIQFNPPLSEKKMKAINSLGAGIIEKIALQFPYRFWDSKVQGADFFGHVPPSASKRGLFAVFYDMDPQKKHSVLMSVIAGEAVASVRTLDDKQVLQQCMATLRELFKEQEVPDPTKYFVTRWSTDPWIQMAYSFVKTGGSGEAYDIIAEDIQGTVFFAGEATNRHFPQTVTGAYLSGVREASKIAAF
Type: biochemical
Protocol: (§1) Enzymatic activities of compounds of the present disclosure can be tested with recombinant human LSD using an in vitro enzymatic assay to determine the ability of the compounds of the present disclosure to inhibit LSD-1 and LSD2. Examples of the assay are provided below.
(§2) All of the enzymatic reactions were conducted in duplicate at room temperature for 60 minutes in a 10 μL mixture containing assay buffer, histone H3 peptide substrate, demthylase enzyme, and the test compound. These 10 μL reactions were carried out in wells of a 384-well Optiplate (PerkinElmer). The dilution of the compounds was first performed in 100% DMSO with the highest concentration at 5 mM Each intermediate compound dilution (in 100% DMSO) was then directly diluted 30× fold into assay buffer for 3.3× concentration (DMSO). […] From this intermediate step, 3 μL of compound was added to 4 μL of demethylase enzyme dilution was incubated for 30 minutes at room temperature. After this incubation, 3 μL of peptide substrate was added. The final DMSO concentration was 1%. After enzymatic reactions, 5 μL of anti-Mouse or anti-Rabbit Acceptor beads (PerkinElmer, diluted 1:500 with 1× detection buffer) and […] (BPS, diluted 1:800 with 1× detection buffer) were added to the reaction mix. After brief shaking, the plate was incubated for 30 minutes. Finally, 10 μL of AlphaScreen™ Streptavidin-conjugated donor beads (Perkin, diluted 1:125 with 1× detection buffer) were added. After 30 minutes, the samples were measured in an AlphaScreen microplate reader (EnSpire Alpha 2390 Multilabel Reader, Perkin Elmer).
(§3) Enzyme activity assays were performed in duplicates at each concentration. The A-screen intensity data were analyzed and compared. In the absence of the compound, the intensity in each data set was defined as 100% (Ce) activity. In the absence of enzyme, the intensity in each data set was defined as 0% (C0) activity. The percent activity in the presence of each compound was calculated according to the following equation: % activity=(C−C0)/(Ce−C0), where C=the intensity in the presence of the compound.
(§4) The value of percent activity versus a series of compound concentrations was then plotted using non-linear regression analysis of Sigmoidal dose-response curve generated with the equation Y=B+(T−B)/1+10((LogEC50−X)×Hill Slope), where Y=percent activity, B=minimum percent activity, T=maximum percent activity, X=logarithm of compound and Hill Slope=slope factor or Hill coefficient. The IC50 value was determined by the concentration causing a half-maximal percent activity.

Structure (SMILES) | inhibition at 50 µM [%]
CC(C)n1cc(C(=O)O)c(=O)c2c(N)c(F)c(N[C@]3(C)C[C@@H](N[C@@H]4C[C@H]4c4ccccc4)C3)cc21 (relative stereo) [Compound I-93] | 2
CCn1cc(C(=O)O)c(=O)c2c(N)c(F)c(N[C@@H]3C[C@H]3c3ccccc3)cc21 (single isomer, unassigned) [Compound I-20] | 10
CCn1cc(C(=O)O)c(=O)c2cc(F)c(NC3CCCCC3)cc21 [Compound I-1] | 6
CCC(CC)n1cc(C(=O)O)c(=O)c2c(C)c(F)c(NC3CCCCC3)cc21 [Compound I-3] | 0
CCn1cc(C(=O)O)c(=O)c2c(N)c(F)c(NC3CCCCC3)cc21 [Compound I-7] | 5
CCn1cc(C(=O)O)c(=O)c2c(N)c(F)c(NC3CCOCC3)cc21 [Compound I-8] | 1
CCn1cc(C(=O)O)c(=O)c2c(N)c(F)c(NC3CCCC3)cc21 [Compound I-9] | 3
CCn1cc(C(=O)O)c(=O)c2c(N)c(F)c(NC3CCc4ccccc43)cc21 (stereo not drawn) [Compound I-10] | 6
CCn1cc(C(=O)O)c(=O)c2c(N)c(F)c(NC3Cc4ccccc4C3)cc21 [Compound I-11] | 13
CCn1cc(C(=O)O)c(=O)c2c(N)c(F)c(NC3CCC3)cc21 [Compound I-12] | 0
CCn1cc(C(=O)O)c(=O)c2c(N)c(F)c(NC3CC3)cc21 [Compound I-15] | 2
CCn1cc(C(=O)O)c(=O)c2c(N)c(F)c(Nc3ccccc3)cc21 [Compound I-16] | 5

What follows are molecules tested against GSK3β (Homo sapiens, UniProt P49841) (assay: GSK3β in vitro enzymatic assay (Kinase-Glo Max luminescence)). Settings: recombinant human GSK3, 10 μM ATP; approximate values; read-out: Potency GSK3beta.
Type: biochemical
Protocol: (§5) Enzymatic activities of compounds of the present disclosure can be tested using recombinant human GSK3 in an in vitro enzymatic assay to determine the ability of the compounds of the present disclosure to inhibit GSK3α and GSK3β.
(§6) The assay was performed using Kinase-Glo® Max luminescence kinase assay kit (Promega). The assay measures kinase activity by quantitating the amount of ATP remaining in solution following a kinase reaction. The luminescent signal from the assay is correlated with the amount of ATP present and is inversely correlated with the amount of kinase activity.
(§7) To perform the assay, compounds were diluted in 10% DMSO and 5 μl of the dilution was added to a 50 μl reaction so that the final concentration of DMSO was 1% in all of reactions. The enzymatic reactions were conducted at 30° C. for 40 minutes. The 50 μl reaction mixture contained 40 mM Tris, pH 7.4, 10 mM MgCl2, 0.1 mg/ml BSA, 2 mM DTT, 0.1 mg/ml GSK tide substrate, 10 uM ATP and GSK3. After the enzymatic reaction, 50 μl of Kinase-Glo Max Luminescence kinase assay solution (Promega) was added to each reaction and plates were incubated for 15 minutes at room temperature. Luminescence signal was measured using a BioTek Synergy 2 microplate reader.
(§8) Kinase activity assays were performed in duplicate at each concentration. The luminescence data were analyzed using the computer software, GraphPad Prism. The difference between luminescence intensities in the absence of Kinase (Lut) and in the presence of Kinase (Luc) was defined as 100% activity (Lut-Luc). Using luminescence signal (Lu) in the presence of the compound, percent activity was calculated as: % activity={(Lut-Lu)/(Lut-Luc)}×100%, where Lu=the luminescence intensity in the presence of the compound (all percent activities below zero were shown zero in the table).
as §4, with “The values” for “The value”, “concentrations were” for “concentrations was”, “The ICs,” for “The IC50”

Chain of GSK3β (P49841 whole entry): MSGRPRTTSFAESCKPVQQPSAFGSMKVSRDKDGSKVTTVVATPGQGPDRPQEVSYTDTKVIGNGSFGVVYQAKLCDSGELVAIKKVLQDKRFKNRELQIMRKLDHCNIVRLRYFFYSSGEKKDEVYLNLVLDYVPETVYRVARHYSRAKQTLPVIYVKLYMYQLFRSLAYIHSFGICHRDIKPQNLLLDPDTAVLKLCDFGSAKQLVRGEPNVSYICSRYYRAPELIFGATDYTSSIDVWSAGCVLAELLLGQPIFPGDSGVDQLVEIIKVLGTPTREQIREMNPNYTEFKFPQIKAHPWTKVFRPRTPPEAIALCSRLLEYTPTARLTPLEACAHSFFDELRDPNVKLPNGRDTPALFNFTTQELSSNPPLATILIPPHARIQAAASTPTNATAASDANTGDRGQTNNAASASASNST

Structure (SMILES) | IC50 [nM]
CC(C)n1cc(C(=O)O)c(=O)c2c(N)c(F)c(N[C@]3(C)C[C@@H](N[C@@H]4C[C@H]4c4ccccc4)C3)cc21 (relative stereo) [Compound I-93] | 6540
CCn1cc(C(=O)O)c(=O)c2c(N)c(F)c(N[C@@H]3C[C@H]3c3ccccc3)cc21 (single isomer, unassigned) [Compound I-20] | 338
CCn1cc(C(=O)O)c(=O)c2cc(F)c(NC3CCCCC3)cc21 [Compound I-1] | 6700
CCC(CC)n1cc(C(=O)O)c(=O)c2c(C)c(F)c(NC3CCCCC3)cc21 [Compound I-3] | 366
CCn1cc(C(=O)O)c(=O)c2c(N)c(F)c(NC3CCCCC3)cc21 [Compound I-7] | 18
CCn1cc(C(=O)O)c(=O)c2c(N)c(F)c(NC3CCOCC3)cc21 [Compound I-8] | 452
CCn1cc(C(=O)O)c(=O)c2c(N)c(F)c(NC3CCCC3)cc21 [Compound I-9] | 53
CCn1cc(C(=O)O)c(=O)c2c(N)c(F)c(NC3CCc4ccccc43)cc21 (stereo not drawn) [Compound I-10] | 1900
CCn1cc(C(=O)O)c(=O)c2c(N)c(F)c(NC3Cc4ccccc4C3)cc21 [Compound I-11] | 990
CCn1cc(C(=O)O)c(=O)c2c(N)c(F)c(NC3CCC3)cc21 [Compound I-12] | 55
CCn1cc(C(=O)O)c(=O)c2c(N)c(F)c(NC3CC3)cc21 [Compound I-15] | 223
CCn1cc(C(=O)O)c(=O)c2c(N)c(F)c(Nc3ccccc3)cc21 [Compound I-16] | 68

Each molecule was assayed against LSD-1 (Homo sapiens, UniProt O60341) (assay: LSD-1 A-screen (AlphaScreen) demethylase enzymatic assay). Settings: 50 μM compound; approximate values; 50 µM.
Type: biochemical
Protocol: as §1, §2, §3, §4

Structure (SMILES) | Potency LSD-1 % Inhibition at 50 μM [% @ 50 μM]
CCn1cc(C(=O)O)c(=O)c2c(N)c(F)c(N[C@@H]3C[C@H]3c3ccccc3)cc21 (single isomer, unassigned) [Compound I-20] | <10

Same assay, conditions: 50 μM compound; approximate values; read-out: Potency LSD-1 % Inhibition at 50 μM

Structure (SMILES) | inhibition at 50 µM [%]
CC(C)n1cc(C(=O)O)c(=O)c2c(N)c(F)c(N[C@]3(C)C[C@@H](N[C@@H]4C[C@H]4c4ccccc4)C3)cc21 (relative stereo) [Compound I-93] | 3
CCn1cc(C(=O)O)c(=O)c2cc(F)c(NC3CCCCC3)cc21 [Compound I-1] | 10
CCC(CC)n1cc(C(=O)O)c(=O)c2c(C)c(F)c(NC3CCCCC3)cc21 [Compound I-3] | 13
CCn1cc(C(=O)O)c(=O)c2c(N)c(F)c(NC3CCCCC3)cc21 [Compound I-7] | 10
CCn1cc(C(=O)O)c(=O)c2c(N)c(F)c(NC3CCOCC3)cc21 [Compound I-8] | 10
CCn1cc(C(=O)O)c(=O)c2c(N)c(F)c(NC3CCCC3)cc21 [Compound I-9] | 6
CCn1cc(C(=O)O)c(=O)c2c(N)c(F)c(NC3CCc4ccccc43)cc21 (stereo not drawn) [Compound I-10] | 22
CCn1cc(C(=O)O)c(=O)c2c(N)c(F)c(NC3Cc4ccccc4C3)cc21 [Compound I-11] | 27
CCn1cc(C(=O)O)c(=O)c2c(N)c(F)c(NC3CCC3)cc21 [Compound I-12] | 36
CCn1cc(C(=O)O)c(=O)c2c(N)c(F)c(NC3CC3)cc21 [Compound I-15] | 2
CCn1cc(C(=O)O)c(=O)c2c(N)c(F)c(Nc3ccccc3)cc21 [Compound I-16] | 32

What follows are molecules tested against GSK3α (Homo sapiens, UniProt P49840) (assay: GSK3α in vitro enzymatic assay (Kinase-Glo Max luminescence)). Settings: recombinant human GSK3, 10 μM ATP; approximate values; read-out: Potency GSK3alpha.
Type: biochemical
Protocol: as §5, §6, §7, §8
as §4, with “The values” for “The value”, “concentrations were” for “concentrations was”, “The ICs,” for “The IC50”

Chain of GSK3α (P49840 whole entry): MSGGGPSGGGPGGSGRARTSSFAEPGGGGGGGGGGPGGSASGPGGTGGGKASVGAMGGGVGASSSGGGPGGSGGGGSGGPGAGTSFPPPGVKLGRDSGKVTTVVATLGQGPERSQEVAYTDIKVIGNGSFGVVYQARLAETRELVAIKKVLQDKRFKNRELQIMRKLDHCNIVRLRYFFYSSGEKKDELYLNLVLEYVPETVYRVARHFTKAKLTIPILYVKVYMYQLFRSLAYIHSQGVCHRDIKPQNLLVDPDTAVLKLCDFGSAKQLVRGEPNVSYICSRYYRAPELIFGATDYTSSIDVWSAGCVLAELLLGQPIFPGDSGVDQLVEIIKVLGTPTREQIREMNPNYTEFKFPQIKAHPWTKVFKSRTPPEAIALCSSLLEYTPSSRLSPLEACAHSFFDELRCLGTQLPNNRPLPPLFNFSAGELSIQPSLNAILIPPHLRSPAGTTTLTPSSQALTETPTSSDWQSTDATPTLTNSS

Structure (SMILES) | IC50 [nM]
CC(C)n1cc(C(=O)O)c(=O)c2c(N)c(F)c(N[C@]3(C)C[C@@H](N[C@@H]4C[C@H]4c4ccccc4)C3)cc21 (relative stereo) [Compound I-93] | 3950
CCn1cc(C(=O)O)c(=O)c2c(N)c(F)c(N[C@@H]3C[C@H]3c3ccccc3)cc21 (single isomer, unassigned) [Compound I-20] | 102
CCn1cc(C(=O)O)c(=O)c2cc(F)c(NC3CCCCC3)cc21 [Compound I-1] | 3600
CCC(CC)n1cc(C(=O)O)c(=O)c2c(C)c(F)c(NC3CCCCC3)cc21 [Compound I-3] | 250
CCn1cc(C(=O)O)c(=O)c2c(N)c(F)c(NC3CCCCC3)cc21 [Compound I-7] | 38
CCn1cc(C(=O)O)c(=O)c2c(N)c(F)c(NC3CCOCC3)cc21 [Compound I-8] | 713
CCn1cc(C(=O)O)c(=O)c2c(N)c(F)c(NC3CCCC3)cc21 [Compound I-9] | 69
CCn1cc(C(=O)O)c(=O)c2c(N)c(F)c(NC3CCc4ccccc43)cc21 (stereo not drawn) [Compound I-10] | 3800
CCn1cc(C(=O)O)c(=O)c2c(N)c(F)c(NC3Cc4ccccc4C3)cc21 [Compound I-11] | 846
CCn1cc(C(=O)O)c(=O)c2c(N)c(F)c(NC3CCC3)cc21 [Compound I-12] | 82
CCn1cc(C(=O)O)c(=O)c2c(N)c(F)c(NC3CC3)cc21 [Compound I-15] | 352
CCn1cc(C(=O)O)c(=O)c2c(N)c(F)c(Nc3ccccc3)cc21 [Compound I-16] | 107
